Measured values reported in ChEMBL document CHEMBL6121004, “Design, synthesis, and biological evaluation of Ponatinib-based N-Phenylpyrimidine-2-amine derivatives as novel fibroblast growth factor receptor 4 (FGFR4) selective inhibitors” (Eur J Med Chem, 2025).
Calls of active or inactive are those of the source. No cut-off for these calls is given here.

Legend:
[1] = Antiproliferative activity against human L02 cells assessed as inhibition of cell proliferation incubated for 72 hrs by MTT assay; assay type: toxicity, cell-based
[2] = Volume of distribution at steady state in BALB/c male mouse at 1 mg/kg, iv measured upto 24 hrs by LC-MS/MS analysis; assay type: ADME, organism-based; conditions: in vivo, read-out: Vdss
Huh-7 [3] = test: Antiproliferative activity against human Huh-7 cells assessed as cell viability at […] pre-incubated with compound for 12 hrs followed by compound washout and measured after 4 days; assay type: functional, cell-based; conditions: dose 1.6 µM
Hep3B [4] = test: Inhibition of MAPK phosphorylation in human Hep3B cells at 0.4 uM incubated for 48 hrs by Western blot analysis; assay type: cell-based
Hep3B [5] = test: Inhibition of MAPK phosphorylation in human Hep3B cells incubated for 48 hrs by Western blot analysis; assay type: cell-based; conditions: dose 0.25-1 µM
[6] = MRT (0 to t) in BALB/c male mouse at 1 mg/kg, iv measured upto 24 hrs by LC-MS/MS analysis; assay type: ADME, organism-based; conditions: in vivo
[7] = Tmax in BALB/c male mouse at 10 mg/kg, po measured upto 24 hrs by LC-MS/MS analysis; assay type: ADME, organism-based; conditions: in vivo
Huh-7 [8] = test: cells; conditions: Homo sapiens, Huh-7, 72 h
Description: Antiproliferative activity against human Huh-7 cells assessed as inhibition of cell proliferation incubated for 72 hrs by MTT assay

Hep 3B2 [9] = test: Induction of apoptosis in human Hep3B cells assessed as viable cells at 0.5 uM incubated for 48 hrs by annexin V-FITC/propidium iodide staining based flow cytometry analysis (reference value: 84.91%); assay type: functional; conditions: read-out: Activity
[10] = AUC (0 to t) in BALB/c male mouse at 10 mg/kg, po measured upto 24 hrs by LC-MS/MS analysis; assay type: ADME, organism-based; conditions: in vivo
Hep 3B2 [11] = test: Induction of apoptosis in human Hep3B cells assessed as viable cells at 1 uM incubated for 48 hrs by annexin V-FITC/propidium iodide staining based flow cytometry analysis (reference value: 84.91%); assay type: functional; conditions: read-out: Activity
Hep 3B2 [12] = test: Induction of apoptosis in human Hep3B cells assessed as late apoptotic cells at 0.5 uM incubated for 48 hrs by annexin V-FITC/propidium iodide staining based flow cytometry analysis (reference value: 5.20%); assay type: functional
Huh-7 [13] = test: Induction of apoptosis in human Huh-7 cells assessed as early apoptotic cells at 1 uM incubated for 48 hrs by annexin V-FITC/propidium iodide staining based flow cytometry analysis (reference value: 4.59%); assay type: functional
Huh-7 [14] = test: Induction of apoptosis in human Huh-7 cells assessed as late apoptotic cells at 0.5 uM incubated for 48 hrs by annexin V-FITC/propidium iodide staining based flow cytometry analysis (reference value: 5.20%); assay type: functional
Huh-7 [15] = test: Induction of apoptosis in human Huh-7 cells assessed as late apoptotic cells at 0.1 uM incubated for 48 hrs by annexin V-FITC/propidium iodide staining based flow cytometry analysis (reference value: 5.20%); assay type: functional
Huh-7 [16] = test: Induction of apoptosis in human Huh-7 cells assessed as necrotic cells at 0.1 uM incubated for 48 hrs by annexin V-FITC/propidium iodide staining based flow cytometry analysis (reference value: 5.20%); assay type: functional
MDA-MB-231 = test: cells; conditions: Homo sapiens, MDA-MB-231, 72 h
Description: Antiproliferative activity against human MDA-MB-231 cells assessed as inhibition of cell proliferation incubated for 72 hrs by MTT assay

Huh-7 [17] = test: Antitumor activity against human Huh-7 cells xenografted in nude mouse assessed as tumor growth inhibition at 12.5 mg/kg, ip administered for 15 days; assay type: functional; conditions: Huh-7, 360 h, time 15 day, read-out: TGI
[18] = Toxicity in male nude mouse implanted with human Huh-7 cells assessed as liver damage at 12.5 to 50 mg/kg, ip administered for 15 days; assay type: organism-based; conditions: in vivo, 360 h, dose 12.5-50 mg/kg, time 15 day
[19] = Toxicity in male nude mouse implanted with human Huh-7 cells assessed as kidney damage at 12.5 to 50 mg/kg, ip administered for 15 days; assay type: organism-based; conditions: in vivo, 360 h, dose 12.5-50 mg/kg, time 15 day
[20] = biological target: Platelet-derived growth factor receptor alpha (Homo sapiens) (UniProt P16234); test: Inhibition of PDGFRalpha (unknown origin) at 1 uM relative to control
Sequence of Platelet-derived growth factor receptor alpha (Homo sapiens) (P16234 whole entry): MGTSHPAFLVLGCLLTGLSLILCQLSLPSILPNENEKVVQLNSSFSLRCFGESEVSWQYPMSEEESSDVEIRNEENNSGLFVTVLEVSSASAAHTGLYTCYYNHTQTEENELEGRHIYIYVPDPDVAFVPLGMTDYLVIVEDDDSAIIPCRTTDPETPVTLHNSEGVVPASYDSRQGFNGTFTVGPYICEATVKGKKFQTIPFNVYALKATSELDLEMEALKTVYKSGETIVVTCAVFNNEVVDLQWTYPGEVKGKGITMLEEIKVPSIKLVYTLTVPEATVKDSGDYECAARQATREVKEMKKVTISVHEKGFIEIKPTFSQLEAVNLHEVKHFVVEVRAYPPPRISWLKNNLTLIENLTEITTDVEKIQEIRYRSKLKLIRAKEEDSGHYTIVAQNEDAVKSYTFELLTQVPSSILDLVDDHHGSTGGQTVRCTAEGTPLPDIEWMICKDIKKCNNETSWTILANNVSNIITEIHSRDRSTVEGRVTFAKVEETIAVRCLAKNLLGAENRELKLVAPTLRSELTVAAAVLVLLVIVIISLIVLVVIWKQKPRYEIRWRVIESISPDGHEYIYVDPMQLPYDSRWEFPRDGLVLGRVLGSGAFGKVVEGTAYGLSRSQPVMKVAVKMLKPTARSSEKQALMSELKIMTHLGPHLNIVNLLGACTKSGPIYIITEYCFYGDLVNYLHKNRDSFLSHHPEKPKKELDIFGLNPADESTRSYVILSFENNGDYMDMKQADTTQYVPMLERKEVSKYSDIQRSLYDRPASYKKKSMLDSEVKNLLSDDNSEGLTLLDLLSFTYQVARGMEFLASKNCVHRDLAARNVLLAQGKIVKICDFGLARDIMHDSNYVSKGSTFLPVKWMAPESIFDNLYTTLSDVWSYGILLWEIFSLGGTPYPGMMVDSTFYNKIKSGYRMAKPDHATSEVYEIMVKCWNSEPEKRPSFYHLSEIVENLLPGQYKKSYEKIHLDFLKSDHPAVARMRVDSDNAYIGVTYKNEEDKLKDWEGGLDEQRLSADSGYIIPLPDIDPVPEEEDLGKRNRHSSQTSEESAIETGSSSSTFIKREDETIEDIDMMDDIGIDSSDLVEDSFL

Vd [2]: 3.52 L/kg
MRT last at 24 h [6]: 46.2 min
Tmax [7]: 60 min
IC50 (Huh-7 [8]): 0.15 µM
AUC(0-t) at 24 h [10]: 318 ng·h/mL
IC50 (MDA-MB-231): 5.6 µM
inhibition [20]: < 70%
SMILES: C=CC(=O)Nc1cccc(C)c1Nc1ncc(C#Cc2cccc(C(=O)Nc3ccc(CN4CCN(C)CC4)c(C(F)(F)F)c3)c2)cn1
IC50 at 72 h [1]: > 10 µM
Activity (Huh-7 [3]): Active
inhibition (Hep3B [4]): Active
inhibition (Hep3B [5]): Dose-dependent-effect
viability at 0.5 µM (Hep 3B2 [9]): 68.9%
viability at 1 µM (Hep 3B2 [11]): 63.2%
Activity (Hep 3B2 [12]): 18.41%
Activity (Huh-7 [13]): 2.12%
Activity (Huh-7 [14]): 11.2%
Activity (Huh-7 [15]): 5.12%
Activity (Huh-7 [16]): 2.37%
inhibition in vivo at 12.5 mg/kg (Huh-7 [17]): 34.9%
Activity [18]: Non-toxic
Activity [19]: Non-toxic
